Data: ChEMBL document CHEMBL1938277, “N-acylaminophenothiazines: neuroprotective agents displaying multifunctional activities for a potential treatment of Alzheimer's disease” (Eur J Med Chem, 2011)

Legend:
SH-SY5Y [1] = test: Neuroprotective activity against H2O2-induced cell death in human SH-SY5Y cells assessed as LDH release at 30 uM incubated for 24 hrs before H2O2 challenge measured after 24 hrs relative to control; format: functional
SH-SY5Y [2] = test: Neuroprotective activity against H2O2-induced cell death in human SH-SY5Y cells assessed as LDH release at 3 uM incubated for 24 hrs before H2O2 challenge measured after 24 hrs relative to control; format: functional
in vitro = settings: PAMPA
Description: Permeability of the compound by PAMPA assay

Cholinesterase = Cholinesterase (Equus caballus, UniProt P81908)
Description: Inhibition of BuChE in horse serum using butyrylthiocholine as substrate by Ellman method

SH-SY5Y [3] = test: Neuroprotective activity against H2O2-induced cell death in human SH-SY5Y cells assessed as LDH release at 10 uM incubated for 24 hrs before H2O2 challenge measured after 24 hrs relative to control; format: functional
SH-SY5Y [4] = test: Neuroprotective activity against H2O2-induced cell death in human SH-SY5Y cells assessed as LDH release at 1 uM incubated for 24 hrs before H2O2 challenge measured after 24 hrs relative to control; format: functional
Acetylcholinesterase = target: T1, Acetylcholinesterase (Bos taurus, UniProt P23795); test: biochemical
T1 sequence (P23795 whole entry): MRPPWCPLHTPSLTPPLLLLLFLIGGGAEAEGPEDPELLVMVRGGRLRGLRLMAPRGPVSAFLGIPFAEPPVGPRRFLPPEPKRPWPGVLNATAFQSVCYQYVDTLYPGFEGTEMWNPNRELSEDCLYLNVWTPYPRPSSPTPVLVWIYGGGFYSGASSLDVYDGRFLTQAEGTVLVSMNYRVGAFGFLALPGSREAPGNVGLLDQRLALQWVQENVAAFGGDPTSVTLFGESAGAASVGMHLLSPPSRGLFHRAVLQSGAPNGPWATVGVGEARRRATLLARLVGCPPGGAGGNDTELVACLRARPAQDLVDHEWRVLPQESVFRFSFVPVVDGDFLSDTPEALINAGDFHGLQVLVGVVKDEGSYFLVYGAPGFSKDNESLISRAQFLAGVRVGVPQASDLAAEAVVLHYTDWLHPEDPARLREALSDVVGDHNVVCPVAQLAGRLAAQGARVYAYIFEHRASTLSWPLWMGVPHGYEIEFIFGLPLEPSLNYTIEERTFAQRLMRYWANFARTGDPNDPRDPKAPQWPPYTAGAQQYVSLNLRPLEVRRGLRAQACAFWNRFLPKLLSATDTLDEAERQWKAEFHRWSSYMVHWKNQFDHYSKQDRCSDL
Description: Inhibition of AChE in bovine erythrocytes using acetylthiocholine as substrate by Ellman method

SH-SY5Y [5] = test: Neuroprotective activity against rotenone/oligomycin A-induced cell death in human SH-SY5Y cells assessed as LDH release at 0.1 uM after 24 hrs relative to control; format: functional
SH-SY5Y [6] = test: Antioxidant activity in human SH-SY5Y cells assessed as sequestering of rotenone/oligomycin A-induced mitochondrial free radicals at 0.3 uM after 120 mins by DCFH-DA assay; format: functional
SH-SY5Y [7] = test: Neuroprotective activity against rotenone/oligomycin A-induced cell death in human SH-SY5Y cells assessed as LDH release at 1 uM after 24 hrs relative to control; format: functional
SH-SY5Y [8] = test: Neuroprotective activity against rotenone/oligomycin A-induced cell death in human SH-SY5Y cells assessed as LDH release at 1 uM treated 24 hrs before rotenone/oligomycin A challenge measured after 24 hrs relative to control; format: functional
SH-SY5Y [9] = test: Cytotoxicity against human SH-SY5Y cells; format: cell-based
SH-SY5Y [10] = test: Neuroprotective activity against rotenone/oligomycin A-induced cell death in human SH-SY5Y cells assessed as LDH release at 0.3 uM treated 24 hrs before rotenone/oligomycin A challenge measured after 24 hrs relative to control; format: functional
SH-SY5Y [11] = test: Neuroprotective activity against rotenone/oligomycin A-induced cell death in human SH-SY5Y cells assessed as LDH release at 0.1 uM treated 24 hrs before rotenone/oligomycin A challenge measured after 24 hrs relative to control; format: functional
SH-SY5Y [12] = test: Neuroprotective activity against rotenone/oligomycin A-induced cell death in human SH-SY5Y cells assessed as LDH release at 0.3 uM after 24 hrs relative to control; format: functional
SH-SY5Y [13] = test: Neuroprotective activity against okadaic acid-induced cell death in human SH-SY5Y cells assessed as LDH release at 0.3 uM treated 24 hrs before okadaic acid challenge measured after 24 hrs relative to control; format: functional
SH-SY5Y [14] = test: Inhibition of potassium chloride-induced cytosolic calcium level in human SH-SY5Y cells at 10 uM treated after 10 mins before potassium chloride challenge by Fluo-4/AM fluorescence assay; format: functional
SH-SY5Y [15] = test: Neuroprotective activity against rotenone/oligomycin A-induced cell death in human SH-SY5Y cells assessed as LDH release at 3 uM treated 24 hrs before rotenone/oligomycin A challenge measured after 24 hrs relative to control; format: functional
SH-SY5Y [16] = test: Neuroprotective activity against rotenone/oligomycin A-induced cell death in human SH-SY5Y cells assessed as LDH release at […] after 24 hrs relative to control; format: functional

Chain of Cholinesterase (P81908 whole entry): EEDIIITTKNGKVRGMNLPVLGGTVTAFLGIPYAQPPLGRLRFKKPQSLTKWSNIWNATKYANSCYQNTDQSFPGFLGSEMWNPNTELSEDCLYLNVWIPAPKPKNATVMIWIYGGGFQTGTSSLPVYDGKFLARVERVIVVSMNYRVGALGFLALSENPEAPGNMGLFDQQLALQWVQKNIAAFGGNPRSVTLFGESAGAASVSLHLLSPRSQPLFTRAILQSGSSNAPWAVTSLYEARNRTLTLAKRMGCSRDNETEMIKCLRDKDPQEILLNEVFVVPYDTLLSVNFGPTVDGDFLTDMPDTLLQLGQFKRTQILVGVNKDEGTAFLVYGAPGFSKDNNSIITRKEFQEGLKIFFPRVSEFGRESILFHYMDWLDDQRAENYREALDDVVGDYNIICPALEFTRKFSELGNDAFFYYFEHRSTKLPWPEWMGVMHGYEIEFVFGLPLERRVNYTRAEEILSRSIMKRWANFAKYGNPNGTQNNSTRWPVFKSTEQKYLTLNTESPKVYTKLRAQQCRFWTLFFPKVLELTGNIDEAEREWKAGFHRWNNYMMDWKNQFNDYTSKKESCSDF

Compound | Activity (SH-SY5Y [1]) | Activity (SH-SY5Y [2]) | Papp (in vitro) | IC50 (Cholinesterase) | Activity (SH-SY5Y [3]) | Activity (SH-SY5Y [4]) | IC50 (Acetylcholinesterase) | Activity (SH-SY5Y [5]) | Activity (SH-SY5Y [6]) | Activity (SH-SY5Y [7]) | Activity (SH-SY5Y [8]) | Activity (SH-SY5Y [9]) | Activity (SH-SY5Y [10]) | Activity (SH-SY5Y [11]) | Activity (SH-SY5Y [12]) | Activity (SH-SY5Y [13]) | inhibition at 10 µM (SH-SY5Y [14]) | Activity (SH-SY5Y [15]) | Activity (SH-SY5Y [16])
CN1CCN(CCC(=O)NN2c3ccccc3Sc3cc(Cl)ccc32)CC1 | 72.8% | 56.6% | 13.8 ×10⁻⁶ cm/s | 0.9 µM | 68.6% | 43.9% | > 100 µM |  |  |  |  |  |  |  |  |  |  |  | 
CN(C)CC(=O)NN1c2ccccc2Sc2ccccc21 | 22% | 26.3% | 18.3 ×10⁻⁶ cm/s | 1.7 µM | 38.6% | 30.5% | > 100 µM |  |  |  |  |  |  |  |  |  |  |  | 
CN(C)CC(=O)NN1c2ccccc2Sc2ccc(Cl)cc21 | 23.2% | 29.5% | 13.5 ×10⁻⁶ cm/s | 7.1 µM | 42.6% | 15.6% | > 100 µM |  |  |  |  |  |  |  |  |  |  |  | 
CN(C)CC(=O)NN1c2ccccc2Sc2cc(Cl)ccc21 | 9.7% | 62.7% | 15.5 ×10⁻⁶ cm/s | 5 µM | 28.2% | 59.8% | > 100 µM |  |  |  |  |  |  |  |  |  |  |  | 
O=C(CN1CCCCC1)NN1c2ccccc2Sc2ccccc21 | 10.1% | 26.1% | 16.4 ×10⁻⁶ cm/s | 0.4 µM | 9.7% | 27.2% | > 100 µM |  |  |  |  |  |  |  |  |  |  |  | 
O=C(CN1CCCCC1)NN1c2ccccc2Sc2cccc(Cl)c21 | 32.6% | 9.9% | 13.9 ×10⁻⁶ cm/s | 2.2 µM | 0% | 1.1% | > 100 µM |  |  |  |  |  |  |  |  |  |  |  | 
O=C(CN1CCCCC1)NN1c2ccccc2Sc2ccc(Cl)cc21 | 76.4% | 80.8% | 9.1 ×10⁻⁶ cm/s | > 100 µM | 73.8% | 66.1% | > 100 µM |  |  |  |  |  |  |  |  |  |  |  | 
O=C(CN1CCCCC1)NN1c2ccccc2Sc2cc(Cl)ccc21 | 17.8% | 55.2% | 14.7 ×10⁻⁶ cm/s | 0.7 µM | 44.9% | 25.4% | > 100 µM |  |  |  |  |  |  |  |  |  |  |  | 
O=C(CN1CCCC1)NN1c2ccccc2Sc2ccccc21 | 23.3% | 35.6% | 10.5 ×10⁻⁶ cm/s | 0.8 µM | 18.9% | 13.1% | > 100 µM |  |  |  |  |  |  |  |  |  |  |  | 
O=C(CN1CCCC1)NN1c2ccccc2Sc2ccc(Cl)cc21 | 55.6% | 48.9% | 11.2 ×10⁻⁶ cm/s | 4.3 µM | 54.8% | 17.4% | > 100 µM |  |  |  |  |  |  |  |  |  |  |  | 
CC(=O)NN1c2ccccc2Sc2cc(Cl)ccc21 | 21.2% | 52.2% | 9.8 ×10⁻⁶ cm/s | > 100 µM | 37.2% | 40.3% | > 100 µM |  |  |  |  |  |  |  |  |  |  |  | 
O=C(CCN1CCCC1)NN1c2ccccc2Sc2ccccc21 | 72.5% | 81.4% | 17.3 ×10⁻⁶ cm/s | 1.4 µM | 88% | 90.1% | > 100 µM | 66.1% | 23.8% | 52.6% | 16.5% | Non-toxic | 42.4% | 58.8% | 63.7% |  |  |  | 
O=C(CCN1CCCC1)NN1c2ccccc2Sc2cc(Cl)ccc21 | 49% | 57.2% | 16.4 ×10⁻⁶ cm/s | 3 µM | 29.4% | 34.4% | > 100 µM |  |  |  |  |  |  |  |  |  |  |  | 
COc1ccc2c(c1)Sc1ccccc1N2NC(=O)CCN1CCCC1 | 0% | 11.8% | 8.7 ×10⁻⁶ cm/s | 0.8 µM | 0% | 17.8% | > 100 µM |  |  |  |  |  |  |  |  |  |  |  | 
CN1CCN(CCC(=O)NN2c3ccccc3Sc3ccccc32)CC1 | 6.3% | 34.5% | 17 ×10⁻⁶ cm/s | 1.3 µM | 22.8% | 82.9% | > 100 µM |  |  |  |  |  |  |  |  |  |  |  | 
COc1ccc2c(c1)Sc1ccccc1N2NC(=O)CCN1CCN(C)CC1 | 55.1% | 42.1% | 16.8 ×10⁻⁶ cm/s | 2 µM | 66.5% | 49.5% | > 100 µM | 66.3% | 24.2% | 65.4% | 50.8% | Non-toxic | 49.4% | 37.2% | 57.9% |  |  |  | 
CN1CCN(CCC(=O)NN2c3ccccc3Sc3cc([N+](=O)[O-])ccc32)CC1 | 31.7% | 46.5% | 14.6 ×10⁻⁶ cm/s | 1.5 µM | 46.2% | 41.3% | > 100 µM |  |  |  |  |  |  |  |  |  |  |  | 
COc1ccc2c3c1O[C@H]1C[C@@H](O)C=C[C@@]31CCN(C)C2 [GALANTAMINE] |  |  |  |  |  |  |  |  |  |  |  |  |  |  |  | 36% |  |  | 
COC(=O)C1=C(C)NC(C)=C(C(=O)OC)C1c1ccccc1[N+](=O)[O-] [NIFEDIPINE] |  |  |  |  |  |  |  |  |  |  |  |  |  |  |  |  | 45% |  | 
Cc1c(C)c2c(c(C)c1O)CCC(C)(C(=O)O)O2 (stereo unspecified) [TROLOX] | 57.7% |  |  |  |  |  |  |  | 27.8% |  |  |  |  |  |  |  |  | 65.1% | 63.7%
